What was measured:
[1] = molecular target: T1, hLPAR1 (human lysophosphatidic acid receptor 1) (Homo sapiens, UniProt Q92633); test: FLIPR intracellular calcium assay, hLPAR1 expressed in CHO-K1 cells; assay type: cell-based; conditions: antagonism of 1 μM LPA-induced calcium increase, CHO-K1 cells expressing hLPAR1; read-out: LPAR1 IC50
T1 construct: expressed in transfected cells
Experimental: The antagonist property of the compounds disclosed herein was determined using the FLIPR (fluorescence imaging plate reader) method, wherein the compounds are inhibitors for the intracellular calcium increase induced by activation of hLPAR1 (human lysophosphatidic acid receptor 1, accession No. NM_001401.4) expressed in CHO-K1 cells (Chinese hamster ovary cells K1, ATCC).
CHO-K1 cells stably expressing hLPAR1 were cultured in F-12 medium containing 10% FBS (fetal bovine serum, Gibco, 10099-141), 1% penicillin-streptomycin (Gibco, 15140-122) and 0.4 mg/mL hygromycin B (Gibco, 10687010) in a cell incubator (37° C., […]). During 18-24 h prior to the FLIPR experiment, cells at 250,000 cells/mL were seeded into a 96-well plate (25,000 cells/well) and incubated overnight in the cell incubator. On the day of the experiment, the medium was discarded and the cells were washed in a FLIPR buffer (0.3 mL of probenecid (Thermo, P36400), 0.6 mL of 1 M HEPES (Invitrogen, 15630080) and 29.1 mL of HBSS (Invitrogen, 14065056) per 30 mL of buffer). Each well was added with 75 μL of 1 mM Fluo-4 AM fluorescent dye (Thermo, F14202) and then the cells were subjected to dye-loading incubation at 37° C. for 1.0 h. The 96-well plate was then washed once with buffer, added with a buffer containing a test compound or vehicle at 50 μL per well and then incubated for 30 min at room temperature. The cell plate was then placed in the FLIPR for baseline fluorescence measurements (excitation at 485 nm and emission at 525-535 nm). An agonist (oleoyl-L-α-lysophosphatidic acid sodium salt (Sigma, L7260) at a final concentration of 1 μM) or a vehicle (ultrapure water) was then added at 50 μL/well, fluorescence values were measured for 2 min at 1-second intervals, and finally the output fluorescence counts were analyzed.

[2] = system: A2058 (human melanoma cells); test: A2058 cell scratch assay (cell migration inhibition); assay type: cell-based; conditions: A2058 scratch area 0 h vs 24 h, 10 μM LPA, read-out: Cell migration inhibition rate
Experimental: The activity of the compounds disclosed herein at the cell level in vitro is evaluated by A2058 (human melanoma cells, Beina Bio, BNCC341099) cell scratch assay. The inhibitory activity of the compounds against LPAR1 can be reflected by inhibition of cell scratch healing.
A2058 cells in a T75 cm^2 cell culture flask were digested and gently pipetted into single cells, adjusted to a cell density of 4×10^5 cells/mL, and then seeded into a 24-well plate. After the cell confluence reached 80%, the cell culture plate was taken out and the original medium was discarded. Serum-free medium was then added, and the cells were starved overnight in an incubator (37° C., 5% CO2). The cell culture plate was then taken out, and cell scratches were made along the diameter of the wells using a 200 μL pipette tip. The cell culture plate was then added with 500 μL of serum-free medium and then shaken gently to wash away the residual cells on the scratched surface, and this was repeated twice. The medium was discarded and 500 μL of 1% FBS medium containing the compound was then added, and the mixture was incubated at 37° C. for 30 min. […] Olympus CKX53 was used to observe the scratches, and MShot image analysis system was used to take pictures and measure the scratch area at 0 h. Then the cell culture plate was incubated in the incubator (37° C., 5% CO2). 24 h later, the scratches were observed again with Olympus CKX53, and MShot image analysis system was used to take pictures and measure the scratch area at 24 h. Cell migration inhibition rate was calculated according to the following formula: […]

[3] = In vitro cytotoxicity assay in HepG2 cells, CCK-8 method; assay type: cell-based; conditions: human, 48 h incubation
Experimental: In vitro cytotoxicity assay for the compounds disclosed herein was performed in HepG2 cells using the CCK-8 method. HepG2 cells (Beina Bio) in the logarithmic growth phase were collected, the concentration of cell suspension was adjusted, and then the cells were plated on a 96-well cell culture plate at 50,000 cells/well. • The cells were then incubated overnight in a cell incubator (5% CO2, 37° C.), and after 80-90% cell confluence was achieved, test compounds or vehicle (DMSO) at various concentration gradients were added after medium change. The resulting mixture was incubated in the cell incubator (5% CO2, 37° C.) for 48 h. After the treatment, the medium in the plate was discarded. The plate was washed twice with PBS, added with CCK-8 working solution (Beyotime) at 100 μL per well, and then incubated at 37° C. for 1.5 h in the dark. Absorbance at OD450nm was measured for each well on a microplate reader, and CC50 value of each compound was analyzed and calculated.

[4] = In vitro metabolic stability, human liver microsomes; assay type: in vitro ADME; conditions: 1 mg/mL liver microsome protein, 37° C.
Experimental: (§1) The in vitro metabolic stability of the compounds disclosed herein was determined through incubation of liver microsomes of various species. A proper amount of test compound was added into a liver microsome reaction system (1 mg/mL liver microsome protein, 25 U/mL glucose-6 phosphate dehydrogenase, 1 mM NADP, 6 mM D-glucose 6-phosphate and 5 mM MgCl2), and then the mixture was incubated in a water bath kettle at 37° C. to start reaction. At each time point, 100 μL of the reaction system was added into a centrifuge tube containing 400 μL of internal standard working solution (containing a 200 ng/mL solution of dexamethasone, diclofenac, tolbutamide and labetalol in acetonitrile) precooled at 0° C. so as to stop the reaction, and the mixture was then centrifuged at 10,000 g for 10 min at 4° C. The supernatant was collected for LC-MS assay so as to obtain the values of in vitro metabolic half-life of the test compounds in liver microsomes of various species.

[5] = In vitro metabolic stability, rat liver microsomes; assay type: in vitro ADME; conditions: 1 mg/mL liver microsome protein, 37° C.
Experimental: as §1

[6] = In vitro metabolic stability, mouse liver microsomes; assay type: in vitro ADME; conditions: 1 mg/mL liver microsome protein, 37° C.
Experimental: as §1

T1 sequence (Q92633 whole entry): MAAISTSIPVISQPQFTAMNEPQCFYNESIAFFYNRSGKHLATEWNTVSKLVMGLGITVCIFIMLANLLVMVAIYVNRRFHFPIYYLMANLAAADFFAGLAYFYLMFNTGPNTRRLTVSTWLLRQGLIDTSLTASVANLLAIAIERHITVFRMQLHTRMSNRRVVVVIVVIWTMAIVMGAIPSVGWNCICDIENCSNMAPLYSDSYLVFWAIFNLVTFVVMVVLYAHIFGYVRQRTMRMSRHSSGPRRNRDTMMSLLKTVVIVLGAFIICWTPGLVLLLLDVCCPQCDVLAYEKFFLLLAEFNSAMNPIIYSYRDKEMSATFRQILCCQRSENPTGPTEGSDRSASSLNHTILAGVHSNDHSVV

Row | Compound | IC50 [1] | half-life [4] | half-life [5] | half-life [6] | inhibition [2] | CC50 at 48 h [3]
1 | CN(Cc1ccccc1)C(=O)OCc1c(-c2ccc(Oc3cc(Cl)ccc3C(=O)O)cc2)nnn1C [Compound 7, 4-chloro-2-(4-(5-(((benzyl(methyl)carbamoyl)oxo)methyl)-1-methyl-1H-1,2,3-triazol-4-yl)phenoxy)benzoic acid] | 300 to 10000 nM | > 30 min | < 30 min | > 30 min | 0 to 30% | > 200000 nM
2 | CN(C(=O)CCc1nnn(C)c1-c1ccc(O[C@H]2CCC[C@H](C(=O)O)C2)c(C(F)(F)F)n1)C1CCCC1 (racemic) [Compound 27-B, (+/−)-(1S,3S)-3-((6-(4-(3-(cyclopentyl(methyl)amino)-3-carbonylpropyl)-1-methyl-1H-1,2,3-triazol-5-yl)-2-(trifluoromethyl)pyridin-3-yl)oxo)cyclohexane-1-carboxylic acid] | 300 to 10000 nM | – | – | – | 0 to 30% | > 200000 nM
3 | CC(C)OCc1c(-c2ccc(O[C@H]3CCC[C@H](C(=O)O)C3)cc2)nnn1C (racemic) [Compound 22, (+/−)-(1S,3S)-3-(4-(5-(isopropoxymethyl)-1-methyl-1H-1,2,3-triazol-4-yl)phenoxy)cyclohexane-1-carboxylic acid] | 50 to 300 nM | – | – | – | 30 to 50% | > 200000 nM
4 | CN(C(=O)Cc1c(-c2ccc(O[C@H]3CCC[C@H](C(=O)O)C3)cc2)nnn1C)C1CCCC1 (racemic) [Compound 19] | 50 to 300 nM | – | – | – | 0 to 30% | > 200000 nM
5 | Cn1nnc(-c2ccc(O[C@H]3CCC[C@H](C(=O)O)C3)cc2)c1CNS(=O)(=O)c1ccccc1 (racemic) [Compound 18, (+/−)-(1S,3S)-3-(4-(1-methyl-5-(benzenesulfonamidomethyl)-1H-1,2,3-triazol-4-yl)phenoxy)cyclohexane-1-carboxylic acid] | 50 to 300 nM | – | – | – | 30 to 50% | > 200000 nM
6 | Cn1nnc(-c2ccc(O[C@H]3CCC[C@H](C(=O)O)C3)cc2)c1C1CN(Cc2ccccc2)C(=O)O1 (stereo partly drawn) [Compound 9, (1S,3S)-3-(4-(5-(3-benzyl-2-carbonyloxazolidin-5-yl)-1-methyl-1H-1,2,3-triazol-4-yl)phenoxy)cyclohexane-1-carboxylic acid] | 50 to 300 nM | – | – | – | 30 to 50% | > 200000 nM
7 | CN(Cc1ccccc1)C(=O)OCc1c(-c2ccc(O/C=C/C(=O)O)cc2)nnn1C [Compound 10, (E)-3-(4-(5-(((benzyl(methyl)carbamoyl)oxo)methyl)-1-methyl-1H-1,2,3-triazol-4-yl)phenoxy)acrylic acid] | 50 to 300 nM | – | – | – | 30 to 50% | > 200000 nM
8 | Cn1nnc(-c2ccc(O[C@H]3CCC[C@H](C(=O)O)C3)cc2)c1COC1CCCC1 (racemic) [Compound 21, (+/−)-(1S,3S)-3-(4-(5-((cyclopentyloxy)methyl)-1-methyl-1H-1,2,3-triazol-4-yl)phenoxy)cyclohexane-1-carboxylic acid] | 50 to 300 nM | – | – | – | 30 to 50% | > 200000 nM

Now from value to compound, other results behind:

Row | IC50 [1] | half-life [4] | half-life [5] | half-life [6] | Compound | inhibition [2] | CC50 at 48 h [3]
9 | ≤ 50 nM | > 30 min | > 30 min | > 30 min | CN(C(=O)NCc1c(-c2ccc(O[C@H]3CCC[C@H](C(=O)O)C3)c(C(F)(F)F)n2)nnn1C)C1CCCC1 (racemic) [Compound 26, (+/−)-(1S,3S)-3-((6-(5-((3-cyclopentyl-3-methylureido)methyl)-1-methyl-1H-1,2,3-triazol-4-yl)-2-(trifluoromethyl)pyridin-3-yl)oxo)cyclohexane-1-carboxylic acid] | 30 to 50% | > 200000 nM
10 | 50 to 300 nM | > 30 min | > 30 min | > 30 min | CN(C(=O)NCc1c(-c2ccc(O[C@H]3CCC[C@H](C(=O)O)C3)c(F)c2)nnn1C)C1CCCC1 [Compound 25] | 30 to 50% | > 200000 nM
11 | 50 to 300 nM | > 30 min | > 30 min | > 30 min | CN(C(=O)OC1CCCC1)c1c(-c2ccc(O[C@H]3CCC[C@H](C(=O)O)C3)cc2)nnn1C (racemic) [Compound 31, (+/−)-(1S,3S)-3-(4-(5-(((cyclopentyloxy)carbonyl)(methyl)amino)-1-methyl-1H-1,2,3-triazol-4-yl)phenoxy)cyclohexane-1-carboxylic acid] | 30 to 50% | > 200000 nM
12 | 50 to 300 nM | > 30 min | > 30 min | > 30 min | CN(Cc1ccccc1)C(=O)/C=C/c1c(-c2ccc(O[C@H]3CCC[C@H](C(=O)O)C3)cc2)nnn1C (racemic) [Compound 2] | 0 to 30% | > 200000 nM
13 | 50 to 300 nM | > 30 min | > 30 min | > 30 min | CN(Cc1ccccc1)C(=O)CCc1c(-c2ccc(O[C@H]3CCC[C@H](C(=O)O)C3)cc2)nnn1C (racemic) [Compound 3] | 30 to 50% | > 200000 nM
14 | 50 to 300 nM | – | – | – | CN(Cc1ccccc1)C(=O)OCc1c(-c2ccc(OCCC(=O)O)cc2)nnn1C [Compound 11, 3-(4-(5-(((benzyl(methyl)carbamoyl)oxo)methyl)-1-methyl-1H-1,2,3-triazol-4-yl)phenoxy)propionic acid] | 0 to 30% | > 200000 nM
15 | ≤ 50 nM | 232 min | 57 min | 192 min | CN(C(=O)CCc1c(-c2ccc(O[C@H]3CCC[C@H](C(=O)O)C3)c(C(F)(F)F)n2)nnn1C)C1CCCC1 (racemic) [Compound 27-A, (+/−)-(1S,3S)-3-((6-(5-(3-(cyclopentyl(methyl)amino)-3-carbonylpropyl)-1-methyl-1H-1,2,3-triazol-4-yl)-2-(trifluoromethyl)pyridin-3-yl)oxo)cyclohexane-1-carboxylic acid] | 50 to 70% | > 200000 nM

Source: patent publication US12378204B2, “Triazole compounds and preparation method therefor and use thereof” (WUHAN LL SCIENCE AND TECHNOLOGY DEVELOPMENT CO., LTD., priority 2019, dated 2025)
